Laboratory results as given in patent US20210085640A1, “ACYLATED CATECHIN POLYPHENOLS AND METHODS OF THEIR USE FOR THE TREATMENT OF CANCER” (Flagship Pioneering Innovations V, Inc., priority 2018, published 2021).

Key:
[1] = Human Regulatory T Cell Differentiation Assay; assay type: cell-based; details: human, primary naïve CD4+ T cells isolated from PBMCs, read-out: Cell viability % DMSO
Protocol: Peripheral blood mononuclear cells (PBMCs) from whole blood donated by health volunteers were separated by Ficoll-Paque gradient centrifugation and naïve CD4^+ T cells were subsequently isolated using magnet beads (EasySep™ Human Naïve CD4^+ T Cell Isolation Kit, Cambridge, Mass.). For regulatory T cell (Treg) differentiation assay, naïve CD4^+ T cells were cultured (1-10×10^4 cells) in CTS OpTmizer medium for 6 days and stimulated with 5 ng/ml TGF-β, 100 U/ml IL-2, and ImmunoCult™ Human […] T Cell Activator; Stemcell #10990) with/without Compounds. Cell viability was determined using a viability dye (eBioscience Fixable Viability Dye eFluor 780: ThermoFisher 65-0865-14) at 1:500 dilution. The cells were gated for Treg, defined as Live, CD11c^−, CD14^−, CD19^−, CD8^−, CD4^+, CD3^+, CD25^+, FOXP3^+. Percent (%) Tregs were calculated as percentage of CD4^+, CD25^+, FOXP3^+ cells over total CD4^+ T cells. Statistical analysis was performed with GraphPad Prism Software Using One-Way ANOVA.

[2] = Stability in Simulated Gastric Fluid (SGF); assay type: in vitro ADME; details: SGF pH 1.6 with pepsin, 1 μM, 37° C.
Protocol: Stability of acylated active agents in Simulated Gastric Fluid (SGF). This assay was used to assess the stability of an acylated active agent in a stomach.
Medium was prepared by dissolving 2 g of sodium chloride in 0.6 L in ultrapure water (MilliQ®, Millipore Sigma, Darmstadt, Germany). The pH was adjusted to 1.6 with 1N hydrochloric acid, and the volume was then adjusted to 1 L with purified water.
60 mg FaSSIF powder (Biorelevant™, London, UK) were dissolved in 500 mL buffer (above). Pepsin was added (0.1 mg/mL) (Millipore Sigma, Darmstadt, Germany), and the solution was stirred. The resulting SGF media were used fresh for each experiment.
(§1) Test compounds were dissolved in DMSO stock to 1 mM. An aliquot of the DMSO stock solution was removed and diluted in the SGF Media in 15 mL falcon tubes to generate a total compound concentration of 1 μM. A 1 mL aliquot was immediately removed and diluted once with 1 volume of acetonitrile for T0 timepoint. The mixture was sealed and mixed at 37° C. in an incubator. Aliquots (1 mL) were removed at regular intervals and immediately quenched by the addition of 1 volume of acetonitrile. The resulting samples were analyzed by LC/MS to determine degradation rates

[3] = Stability in Simulated Intestinal Fluid (SIF); assay type: in vitro ADME; details: for Assay 2 (SIF) (% @ Remaining 4 hours): SIF pH 6.7 with pancreatin, 1 μM, 37° C.; for selective delivery to the upper intestine: conclusion drawn from Table 1 (SGF and SIF stability)
Protocol: SIF Stability of acylated active agents in Simulated Intestinal Fluid (SIF). This assay was used to assess the stability of an acylated active agent in a small intestine.
Phosphate buffer was prepared by dissolving 0.42 g of sodium hydroxide pellets and 3.95 g of monobasic sodium phosphate monohydrate and 6.19 g of sodium chloride in ultrapure water (MilliQ®, Millipore Sigma, Darmstadt, Germany). The pH was adjusted to 6.7 using aq. HCl and aq. NaOH, as necessary, and the solution was diluted with ultrapure water to produce 1 L of the pH 6.7 buffer.
112 mg FaSSIF powder (Biorelevant™, London, UK) was dissolved in 50 mL of the pH 6.7 buffer. 2 to 3 mL of the resulting solution were then added to 500 mg pancreatin (Millipore Sigma, Darmstadt, Germany). The resulting mixture was agitated by finger tapping the vessel containing the mixture until milky suspension formed. At this time, the remainder of the 50 mL FaSSiF/pH 6.7 buffer solution was added. The resulting suspension was flipped upside down 10 times to produce SIF, which was used fresh.
as §1, with “SIF media” for “SGF Media”, “produce” for “generate”, “mixture with a tested” for “total”, “agitated” for “mixed”, “rates.” for “rates”

SMILES | Assay 1 (SGF) (% Remaining @ 1 hours) [2] | Assay 2 (SIF) (% @ Remaining 4 hours) [3] | selective delivery to the upper intestine [3] | other results
C[C@@H](O)CCO [(R)-1,3-Butanediol] | – | – | – | viability at 6 days, 100 µM [1]: 90 to 110%; viability at 6 days, 0.5 mM ([1]; 0.5 mM): 90 to 110%
CC(=O)O [Acetic acid] | – | – | – | viability at 6 days, 1 mM ([1]; 1 mM): 90 to 110%; viability at 6 days, 3 mM [1]: 90 to 110%
CCCC(=O)O [Butyric Acid] | – | – | – | viability at 6 days, 3 mM [1]: < 90%
CCCC(=O)Oc1cc(OC(=O)CCC)c2c(=O)c(OC(=O)CCC)c(-c3ccc(OC(=O)CCC)c(OC(=O)CCC)c3)oc2c1 [Compound 5, [2-butanoyloxy-4-[3,5,7-tri(butanoyloxy)-4-oxo-chromen-2-yl]phenyl] butanoate] | C (>75% of the tested compound remaining) | B (25-75% of the tested compound remaining) | can be selectively delivered to the upper intestine | –
CC(=O)Oc1ccc(C2CC(=O)c3c(OC(C)=O)cc(OC(C)=O)cc3O2)cc1 (stereo not shown) [Compound 9, [4-(5,7-diacetoxy-4-oxo-chroman-2-yl)phenyl] acetate] | C (>75% of the tested compound remaining) | A (<25% of the tested compound remaining) | can be selectively delivered to the upper intestine | –
CCCC(=O)Oc1ccc(C2CC(=O)c3c(OC(=O)CCC)cc(OC(=O)CCC)cc3O2)cc1 (stereo not shown) [Compound 10, [4-[5,7-di(butanoyloxy)-4-oxo-chroman-2-yl]phenyl] butanoate] | B (25-75% of the tested compound remaining) | A (<25% of the tested compound remaining) | – | –
CCC(=O)Oc1cc(O)c2c(=O)cc(-c3ccc(OC(=O)CC)c(OC(=O)CC)c3)oc2c1 [Compound 12, 4-(5-hydroxy-4-oxo-7-(propionyloxy)-4H-chromen-2-yl)-1,2-phenylene dipropionate] | C (>75% of the tested compound remaining) | A (<25% of the tested compound remaining) | can be selectively delivered to the upper intestine | –
CCC(=O)Oc1cc(OC(=O)CC)c2c(=O)c(OC(=O)CC)c(-c3cc(OC(=O)CC)c(OC(=O)CC)c(OC(=O)CC)c3)oc2c1 [Compound 13, [4-oxo-3,5-di(propanoyloxy)-2-[3,4,5-tri(propanoyloxy)phenyl]chromen-7-yl] propanoate] | C (>75% of the tested compound remaining) | A (<25% of the tested compound remaining) | can be selectively delivered to the upper intestine | –
CCC(=O)Oc1ccc2c(c1)oc(=O)c1cc(OC(=O)CC)c(OC(=O)CC)cc12 [Compound 18, [6-oxo-8,9-di(propanoyloxy)benzo[c]chromen-3-yl] propanoate] | C (>75% of the tested compound remaining) | A (<25% of the tested compound remaining) | can be selectively delivered to the upper intestine | –
CCCC(=O)OCC[C@@H](C)OC(=O)Oc1ccc(/C=C/c2cc(OC(=O)O[C@H](C)CCOC(=O)CCC)cc(OC(=O)O[C@H](C)CCOC(=O)CCC)c2)cc1 [Compound 25, [(3R)-3-[4-[(E)-2-[3,5-bis[[(1R)-3-butanoyloxy-1-methyl-propoxy]carbonyloxy]phenyl]vinyl]phenoxy]carbonyloxybutyl] butanoate] | C (>75% of the tested compound remaining) | A (<25% of the tested compound remaining) | can be selectively delivered to the upper intestine | –
CCCC(=O)O[C@H](C)CCOC(=O)Oc1ccc(/C=C/c2cc(OC(=O)OCC[C@@H](C)OC(=O)CCC)cc(OC(=O)OCC[C@@H](C)OC(=O)CCC)c2)cc1 [Compound 26, [(1R)-3-[4-[(E)-2-[3,5-bis[[(3R)-3-butanoyloxybutoxy]carbonyloxy]phenyl]vinyl]phenoxy]carbonyloxy-1-methyl-propyl] butanoate] | C (>75% of the tested compound remaining) | B (25-75% of the tested compound remaining) | – | –
CCC(=O)OCC[C@@H](C)OC(=O)Oc1ccc(/C=C/c2cc(OC(=O)O[C@H](C)CCOC(=O)CC)cc(OC(=O)O[C@H](C)CCOC(=O)CC)c2)cc1 [Compound 27, [(3R)-3-[4-[(E)-2-[3,5-bis[[(1R)-1-methyl-3-propanoyloxy-propoxy]carbonyloxy]phenyl]vinyl]phenoxy]carbonyloxybutyl] propanoate] | C (>75% of the tested compound remaining) | A (<25% of the tested compound remaining) | can be selectively delivered to the upper intestine | –
CCC(=O)O[C@H](C)CCOC(=O)Oc1ccc(/C=C/c2cc(OC(=O)OCC[C@@H](C)OC(=O)CC)cc(OC(=O)OCC[C@@H](C)OC(=O)CC)c2)cc1 [Compound 28, (2R,2′R)-((((5-(E)-4-((((R)-3-(propionyloxy)butoxy)carbonyl)oxy)styryl)-1,3-phenylene)bis(oxy))bis(carbonyl))bis(oxy))bis(butane-4,2-diyl) dipropionate] | B (25-75% of the tested compound remaining) | A (<25% of the tested compound remaining) | – | –
CC(=O)OCC[C@@H](C)OC(=O)Oc1ccc(/C=C/c2cc(OC(=O)O[C@H](C)CCOC(C)=O)cc(OC(=O)O[C@H](C)CCOC(C)=O)c2)cc1 [Compound 33, [(3R)-3-[4-[(E)-2-[3,5-bis[[(1R)-3-acetoxy-1-methyl-propoxy]carbonyloxy]phenyl]vinyl]phenoxy]carbonyloxybutyl] acetate] | C (>75% of the tested compound remaining) | A (<25% of the tested compound remaining) | can be selectively delivered to the upper intestine | –
CC(=O)O[C@H](C)CCOC(=O)Oc1ccc(/C=C/c2cc(OC(=O)OCC[C@@H](C)OC(C)=O)cc(OC(=O)OCC[C@@H](C)OC(C)=O)c2)cc1 [Compound 34, [(1R)-3-[4-[(E)-2-[3,5-bis[[(3R)-3-acetoxybutoxy]carbonyloxy]phenyl]vinyl]phenoxy]carbonyloxy-1-methyl-propyl] acetate] | C (>75% of the tested compound remaining) | A (<25% of the tested compound remaining) | can be selectively delivered to the upper intestine | –
CC[C@H]1[C@@H](O)[C@@H]2[C@H](CC[C@]3(C)[C@@H]([C@H](C)CCC(=O)O)CC[C@@H]23)[C@@]2(C)CC[C@@H](O)C[C@@H]12 [Obeticholic acid] | – | – | – | viability at 6 days, 100 µM [1]: 90 to 110%
O=c1c(O)c(-c2ccc(O)c(O)c2)oc2cc(O)cc(O)c12 [Quercetin] | – | – | – | viability at 6 days, 0.1 µM ([1]; 100 nM): 90 to 110%; viability at 6 days, 1 µM ([1]; 1 uM): 90 to 110%
CN(CCOc1ccc(CC2SC(=O)NC2=O)cc1)c1ccccn1 (stereo not shown) [Rosiglitazone] | – | – | – | viability at 6 days, 10 µM ([1]; 10 uM): 90 to 110%; viability at 6 days, 100 µM [1]: < 90%
